Reference: patent US10471076B2, “Compositions and methods to treat vision disorders” (YouHealth Biotech, Limited, priority 2014, dated 2019)
“And” between values parts separate entries of the source, which are not always exact repeats. Equal values may be shown once. “Also recorded” adds a separate entry of the source.

Tests used:
[1] = target: T1, αA-crystallin (Y118D) aggregates (Homo sapiens, UniProt P02489, Y118D); assay: Serial live-cell imaging, single-particle tracking of aggregates; type: cell-based; conditions: human lens progenitor cells; 40 mM sterol in 1% DMSO for 4 h
T1 construct: expressed in transfected cells; host or cells: human lens progenitor cells, G418-selected
T1 sequence (P02489 1-173 Y118D): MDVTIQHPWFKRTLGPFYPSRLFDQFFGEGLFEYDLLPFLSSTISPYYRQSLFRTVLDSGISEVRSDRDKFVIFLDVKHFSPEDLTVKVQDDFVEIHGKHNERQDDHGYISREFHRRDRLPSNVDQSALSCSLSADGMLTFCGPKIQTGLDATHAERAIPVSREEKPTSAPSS
Procedure: Live-cell imaging. Human lens progenitor cells were transfected with plasmids containing αA-crystallin (Y118D) mutant. After a 24 h transfection period, the cells with stable expression of αA-crystallin (Y118D) mutant were screen by incubation in culture medium containing 0.8 mg ml^−1 G418 for 7 days. Then the obtained cells were seeded onto glass bottom cell culture dishes (In Vitro Scientific) and treated with 1% DMSO, 40 mM cholesterol in 1% DMSO or 40 mM lanosterol in 1% DMSO for 4 h. Fresh culture medium was added, and the cells were analysed by serial live-cell imaging. Live-cell images were viewed with an Olympus IX81 microscope and captured with CellSens Dimension soft-ware (Olympus). Quantitative analysis of the size of aggregates was performed by measuring the fluorescence intensity of p62-positive aggregates using single-par-tide tracking in live-cell imaging. The live-cell imaging was conducted using three biological replicates with 1-8 repetitions each.

[2] = test system: cataract-causing mutant crystallin proteins; assay: Intracellular aggregation of mutant crystallins in transfected human lens progenitor cells; type: cell-based
Procedure: To assess the effect of lanosterol on crystallin aggregation, human lens progenitor cells were co-transfected with LSS and various crystallin constructs for 4 h. Cells co-transfected with crystallin mutants and pcDNA3.1-N-Flag were used as a control. Human lens progenitor cells co-transfected with LSS and crystallin mutant constructs were cultured for 12 h before assaying for aggregates. The rescue experiments were performed after 16 h by addition of 40 mM sterols (lanosterol or cholesterol, Sigma-Aldrich) to the cell culture medium for 2 h, which was then replaced with fresh culture medium and cells cultured for 24 h. The percentage of cells with crystallin aggregates was calculated from ten randomly selected viewing fields. The values of the wild-type LSS group, mutant group, and mutant plus lanosterol group were calculated. Cells treated with 1% DMSO were used as the controls.
The impact of LSS and lanosterol on intracellular crystallin aggregation were evaluated in single-blinded observer studies. Experiments have been repeated at least three times. P values were calculated using Student's t-tests. Fluorescence microscopy. Equal amounts of the human lens progenitor cells, HLEB-3 cells or HeLa cells were seeded on glass coverslips pretreated with TC (Solarbio). After culturing for 24 h to reach 90% confluency, the cells were transfected with plasmids containing various LSS or crystallin genes or co-transfected with plasmids containing a certain crystallin gene and those containing the wild-type or mutated LSS gene. The controls were cells transfected with the plasmids containing peGFP-N1 and/or peDNA3.1-N-Flag. Both transfection and co-transfection were performed using Lipofectamine 3000 (Invitrogen) according to the instructions from the manufacturer.
The effect of lanosterol or cholesterol on the aggresome formation of various crystallins was studied by transfecting the cells with plasmids containing various crystallin genes. The cells were incubated for 24 h to enable efficient protein expression and aggresome formation. The cells were then treated with 0-40 mM sterols in 1% (for human lens progenitor cells) or 2% DMSO (for HeLa cells). Cells treated with 1% or 2% DMSO were used as the control. After treatment for 2 h, the media was replaced with fresh media. After 12 h, the cells were used for microscopy analysis.
The microscopy samples were prepared by washing the slips with phosphate buffered saline (PBS) three times. The cells were fixed with 4% paraformaldehyde for 40 min followed by another three washes with PBS. The cells were permeabilized with 0.1% Triton X-100 (Sigma) in PBS for 10 min and blocked with 5% normal goat serum in PBS for 1 h at 37° C. […] The mounted cells were analysed using a Carl Zeiss LSM 710 confocal microscope.

[3] = test system: naturally occurring cataractous lenses from rabbits; assay: Treatment of isolated cataractous rabbit lenses; set-up: key to cataract grade before treatment / cataract grade after treatment: Grade 0: absence of opacification (gridlines clearly visible); Grade 1: a slight degree of opacification (minimal clouding of gridlines, with gridlines still visible); Grade 2: presence of diffuse opacification involving almost the entire lens (moderate clouding of gridlines, with main gridlines visible); Grade 3: presence of extensive, thick opacification involving the entire lens (total clouding of gridlines, with gridlines not seen at all)
From the text: FIG. 12A, FIG. 12B, and FIG. 12C show grading system of cataractous lenses. […] The degree of transparency was scored as 0, a clear lens and absence of opacification (gridlines clearly visible, a′); 1, a blurry lens and a slight degree of opacification (minimal clouding of gridlines, with gridlines still visible, b′); 2, a cloudy lens and presence of diffuse opacification involving almost the entire lens (moderate clouding of gridlines, with main gridlines visible, c′); or 3, an opaque lens and presence of extensive thick opacification involving the entire lens (total clouding of gridlines, with gridlines not seen at all, d′). […] Rabbit lenses (n=13) were dissected and incubated with lanosterol for 6 days and subsequently assessed for lens clarity and transparency. Pairs of photographs of each cataractous rabbit lens showing before and after treatment with scores underneath are shown. […] Dog eyes with cataracts (n=7) were treated with lanosterol for 6 weeks and assessed for lens clarity and transparency. A pair of photographs of each study eye before and after treatment is shown with scores underneath. Three control eyes treated with vehicles alone are also presented.
Treatment of cataractous rabbit lenses. Rabbits were euthanized by CO2 inhalation and lenses were immediately dissected and treated with vehicle or lanosterol dissolved in vehicle to make 25 mM solutions. Lens tissues were incubated in these solutions for 6 days in the dark at room temperature. Cataracts were examined under a microscope and photographed. Degree of cataract was assessed by a blinded examiner using a previously described opacification grading system, shown below^32,33. Improvements in lens clarity and transparency were quantified by visual inspection and grading. Lens clarity was scored by transmission of light, clarity of a grid image underneath the lens (FIG. 12A, FIG. 12B, FIG. 12C), and improvement in overall clarity of a lens or improvement in clarity of localized areas of cortical cataract. Wilcoxon test was used to evaluate the treatment effect.
Cataract grading system. […]

SMILES: CC(C)=CCC[C@@H](C)[C@H]1CC[C@@]2(C)C3=C(CC[C@]12C)[C@@]1(C)CC[C@H](O)C(C)(C)[C@@H]1CC3 [lanosterol, 3β-Hydroxy-8,24-lanostadiene; 8,24-Lanostadien-3β-ol]
- effect on αA-crystallin (Y118D) aggregates in live cells [1]: could effectively diminish crystallin aggregates
- intracellular aggregation / aggresome formation of crystallin proteins ([2]; 0-40 mM sterols in 1% DMSO for 2 h, then 12 h, concentration-dependent, n=3, lanosterol P<1×10^−4, cholesterol P>0.1): significantly inhibited aggresome formation; also recorded: significantly reduced the intracellular aggregation
- crystallin aggregation in cells co-expressing an LSS mutant and a mutant crystallin (rescue by sterol) ([2]; 40 mM sterols in culture medium for 2 h, then fresh medium 24 h): successfully reduced crystallin aggregation
- cataract grade after treatment ([3]; isolated rabbit lens incubated in 25 mM lanosterol solution for 6 days, n=13): 1 and 0
- cataract grade before treatment ([3]; isolated rabbit lens, baseline of each lanosterol-treated sample, n=13): 2 and 1 and 3
- cataract severity / lens clarity ([3]; isolated rabbit lenses, 25 mM lanosterol, 6 days, P<0.003, Wilcoxon Test): strong trend of reduction in cataract severity; also recorded: reduced cataract severity and increased clarity
